Assay results from article PMC10119423, “From PERK to RIPK1: Design, synthesis and evaluation of novel potent and selective necroptosis inhibitors” (Frontiers in Chemistry, 2023).
Read-outs that look alike come from different tables or passages of the source.

Legend:
[1] = test system: immortalized MEFs; assay: RIPK1 kinase-dependent necroptosis (hTNF + zVAD.fmk) in MEFs, Sytox Green; type: cell-based, mouse; conditions: for IC50: Mus musculus; for necroptosis inhibition (in words): mouse cells (MEFs), RIPK1-dependent necroptosis;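 as to all read-outs here: cell death taken as background-corrected Sytox Green fluorescence relative to the maximal signal of cells fully permeabilized with 0.1% Triton X-100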
Method: In brief, the cells were seeded in duplicate at 10,000 cells per well in a 96-well adherent plate and incubated overnight at 37°C with 5% CO2. […] All the compound stock solutions were prepared in DMSO at 200 µM concentration. After stimulating the cells with human TNF at 20 ng/mL the plate was transferred to the incubator. […] The cell death was calculated by subtracting the background fluorescence from the induced Sytox Green fluorescence and by dividing the obtained result by the maximal fluorescence (minus the background fluorescence) obtained by permeabilization of the cells by using Triton X-100 at a final concentration of 0.1%. Curves were plotted in GraphPad 9 for the IC50 calculation.
Consequently, the compounds were evaluated for their potential protection of RIPK1-mediated necroptosis following human TNF stimulation.

[2] = target: T1, RIPK1 (Mus musculus, UniProt Q60855); assay: RIPK1 autophosphorylation (pS166) by Western blot in MEFs stimulated with hTNF + TAK1i + zVAD.fmk; type: cell-based; conditions: immortalised MEFs, 30 min pretreatment with zVAD.fmk 50 μM, TAK1i 1 μM and compound, hTNF 20 ng/ml for 2.5 h, read-out: RIPK1 inhibition (IC50 estimated from a Western blot)
T1 construct: endogenous in cells; host or cells: immortalized mouse embryonic fibroblasts (MEFs, C57Bl6/J)
T1 sequence (Q60855 1-656): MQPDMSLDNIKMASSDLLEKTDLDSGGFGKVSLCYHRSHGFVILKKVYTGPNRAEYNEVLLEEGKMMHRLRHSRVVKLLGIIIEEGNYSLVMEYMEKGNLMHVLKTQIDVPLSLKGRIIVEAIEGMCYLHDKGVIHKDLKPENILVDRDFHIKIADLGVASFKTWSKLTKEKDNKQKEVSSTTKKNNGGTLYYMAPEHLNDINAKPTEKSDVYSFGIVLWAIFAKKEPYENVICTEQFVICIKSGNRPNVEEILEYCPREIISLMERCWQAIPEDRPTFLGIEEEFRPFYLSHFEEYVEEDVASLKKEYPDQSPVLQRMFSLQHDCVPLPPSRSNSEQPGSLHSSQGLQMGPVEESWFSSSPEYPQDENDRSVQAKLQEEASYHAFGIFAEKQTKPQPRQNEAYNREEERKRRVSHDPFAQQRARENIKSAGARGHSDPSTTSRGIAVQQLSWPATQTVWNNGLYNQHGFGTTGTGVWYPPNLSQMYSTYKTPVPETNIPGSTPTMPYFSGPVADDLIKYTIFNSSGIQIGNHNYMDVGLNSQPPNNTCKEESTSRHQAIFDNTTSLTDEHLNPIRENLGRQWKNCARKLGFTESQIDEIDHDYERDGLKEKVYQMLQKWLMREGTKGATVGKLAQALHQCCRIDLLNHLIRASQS
Method: (§1) MEFs were seeded in 6-well plates at a density of 300.000 cells/well in 2 mL. The next day, the cells were suspended in 1 mL of medium and pre-treated for 30 min with the indicated compounds at 1/5 dilutions series for PERK ranging from 5 to 0.04 µM and 1 μg/mL of Tm followed by 4 h treatment with 20 ng/mL of hTNF. For RIPK1, the cells were pre-treated at 1/10 dilutions series ranging from 10 to 0.01 nM, 50 µM zVAD.fmk and 1 µM TAKi before stimulation with 20 ng/mL of hTNF for 2.5 h. Then, the cells were washed two times with 1 mL of ice-cold PBS before lysis in 0.2 mL of Laemmli buffer 1x (10% (w/v) SDS, 50% glycerol, 0.5% bromophenol blue, 250 mM Tris–HCl pH 6.8) and 250 mM of dithiothreitol (DTT). The cell lysate was then collected and boiled at 95 °C for 10min and stored at −20°C. Proteins expression was later monitored by immunoblotting.
Activation of PERK was induced by stimulation of the cells with Tunicamycin, as previsouly reported ([Bull and Thiede, 2012]). More precisely, the immortalised MEFs were pre-incubated for 30 min with the analogues 18–34 at different concentrations (0.04, 0.2, 1, and 5 µM) prior to 4 h stimulation with Tunicamycin (1 μg/mL). […] Their activities were evaluated by comparing the intensity of the signal to unstimulated MEFs (considered as zero phosphorylation) and Tunicamycin stimulated cells (considered as 100% PERK phosphorylation). The 12 compounds (18–20, 22–29 and 34) that had lost their inhibitory capacity on PERK were then tested for their ability to inhibit RIPK1 as shown in Figures 6A–H. Activation and autophosphorylation of RIPK1 was induced by stimulating the cells with TNF in the presence of TAK1 inhibitor and of the pan-caspases inhibitor zVAD.fmk, a well established necroptotic trigger ([Vanlangenakker et al., 2011]). The MEFs were pre-incubated for 30 min with the different compounds (0.01 nM–1000 nM) and then stimulated with human TNF (20 ng/mL) for 2.5 h. Similar to the PERK assessment, IC50 values for RIPK1 inhibition were estimated as a range of concentrations, and are reported in Table 1. These experiments provide an estimation of the specificity of our analogues against PERK and RIPK1 in comparison to the benchmark GSK’157 already reported as a potent PERK and RIPK1 inhibitor.

[3] = target: T2, PERK (Mus musculus, UniProt Q9Z2B5); assay: PERK autophosphorylation by Western blot in tunicamycin-stimulated immortalized MEFs; type: cell-based; conditions: immortalized MEFs, 30 min pretreatment, tunicamycin 1 μg/ml for 4 h; PERK autophosphorylation; read-out: PERK inhibition (IC50 estimated from a Western blot)
T2 construct: Immortalized MEFs were pretreated for 30 min with increasing concentrations of GSK’157 and the indicated compounds and stimulated with tunicamycin; endogenous in cells; host or cells: immortalized mouse embryonic fibroblasts (MEFs, C57Bl6/J)
T2 sequence (Q9Z2B5 29-1114): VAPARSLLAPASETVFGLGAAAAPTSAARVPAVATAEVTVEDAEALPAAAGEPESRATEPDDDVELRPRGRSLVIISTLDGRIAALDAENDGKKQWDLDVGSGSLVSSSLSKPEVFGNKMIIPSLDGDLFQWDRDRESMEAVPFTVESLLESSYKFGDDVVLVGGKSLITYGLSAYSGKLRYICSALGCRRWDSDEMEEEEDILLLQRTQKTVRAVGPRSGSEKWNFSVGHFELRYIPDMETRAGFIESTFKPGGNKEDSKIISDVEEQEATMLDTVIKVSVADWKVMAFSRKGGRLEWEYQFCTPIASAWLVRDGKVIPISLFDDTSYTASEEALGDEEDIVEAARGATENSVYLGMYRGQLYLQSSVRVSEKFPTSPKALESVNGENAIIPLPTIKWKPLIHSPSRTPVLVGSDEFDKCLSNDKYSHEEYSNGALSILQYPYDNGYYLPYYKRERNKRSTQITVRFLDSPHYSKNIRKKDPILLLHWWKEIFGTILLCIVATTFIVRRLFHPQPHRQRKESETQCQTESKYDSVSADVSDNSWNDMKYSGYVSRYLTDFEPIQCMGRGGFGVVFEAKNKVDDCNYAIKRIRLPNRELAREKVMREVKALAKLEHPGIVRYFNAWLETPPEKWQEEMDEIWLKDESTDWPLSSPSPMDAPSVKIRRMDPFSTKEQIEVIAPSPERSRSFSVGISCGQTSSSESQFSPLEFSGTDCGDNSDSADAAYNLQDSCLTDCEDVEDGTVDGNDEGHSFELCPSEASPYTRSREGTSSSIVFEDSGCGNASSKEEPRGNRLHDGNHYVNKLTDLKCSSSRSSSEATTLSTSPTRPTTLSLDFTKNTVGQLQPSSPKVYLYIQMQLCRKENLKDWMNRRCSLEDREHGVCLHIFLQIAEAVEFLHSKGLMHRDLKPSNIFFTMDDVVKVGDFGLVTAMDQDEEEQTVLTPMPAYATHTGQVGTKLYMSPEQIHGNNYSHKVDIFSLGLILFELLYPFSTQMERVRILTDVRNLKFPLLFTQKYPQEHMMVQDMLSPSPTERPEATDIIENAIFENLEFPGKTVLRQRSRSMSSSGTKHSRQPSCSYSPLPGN
Method: as §1
Their activities were evaluated by comparing the intensity of the signal to unstimulated MEFs (considered as zero phosphorylation) and Tunicamycin stimulated cells (considered as 100% PERK phosphorylation). […] The MEFs were pre-incubated for 30 min with the different compounds (0.01 nM–1000 nM) and then stimulated with human TNF (20 ng/mL) for 2.5 h. Similar to the PERK assessment, IC50 values for RIPK1 inhibition were estimated as a range of concentrations, and are reported in Table 1.

[4] = test system: HT-29; assay: Necroptosis (hTNF + TAK1i + zVAD.fmk) in HT-29 cells, Sytox Green; conditions: Homo sapiens, HT-29, read-out: Necroptosis hTNF + TAK1i + zVAD.fmk HT-29 IC50
Method: In brief, the cells were seeded in duplicate at 10,000 cells per well in a 96-well adherent plate and incubated overnight at 37°C with 5% CO2. […] All the compound stock solutions were prepared in DMSO at 200 µM concentration. After stimulating the cells with human TNF at 20 ng/mL the plate was transferred to the incubator. Sytox Green intensity was measured in function of time at 0, 14 and 24 h with an excitation filter of 485 nm, an emission filter of 520 nm. The cell death was calculated by subtracting the background fluorescence from the induced Sytox Green fluorescence and by dividing the obtained result by the maximal fluorescence (minus the background fluorescence) obtained by permeabilization of the cells by using Triton X-100 at a final concentration of 0.1%. Curves were plotted in GraphPad 9 for the IC50 calculation.
To induce necroptosis in human colorectal adenocarcinoma cell line (HT-29) together with hTNF and the pan caspases inhibitor zVAD.fmk, TAK1 inhibitor is also needed.

[5] = test system: MEFs; assay: RIPK1 kinase-dependent apoptosis (hTNF + TAK1i) in MEFs, Sytox Green; type: cell-based; conditions: Mus musculus, TAK1i + hTNF (100 pg/mL)
From the text: In MEFs, TNF together with the pan caspases inhibitor zVAD.fmk induces RIPK1-dependent necroptosis while TNF together with TAK1 inhibitor induces RIPK1 kinase-dependent apoptosis. We also included the conditions selected for the Western blot experiments, where necroptosis was induced by the combination of hTNF, zVAD.fmk and TAK1 inhibitor.

[6] = test system: 300 kinases; design: method as in Axten et al., 2013; conditions: 10 µM, out of 300 kinases; ref Axten et al., 2013; cited from earlier work
[7] = test system: panel of 294 kinases; design: method as in Axten et al., 2012; conditions: 10 µM, ref Axten et al., 2012; cited from earlier work
[8] = 24 h, immortalized MEFs, zVAD-fmk 50 μM + hTNF 20 ng/ml, Sytox Green at 24 h, Table 1 series, read-out: IC50 necroptosis
[9] = 24 h, MEFs, hTNF + zVAD.fmk (20 ng/mL), Table 2, read-out: Necroptosis hTNF + zVAD.fmk MEFs IC50
[10] = MEFs, hTNF + zVAD.fmk, read-out: IC50 necroptosis inhibition

Row | SMILES | IC50 [1, 8] | IC50 [2] | IC50 [3] | other results
1 | Cn1cc(-c2ccc3c(c2F)CCN3C(=O)Cc2ccc(Br)cc2)c2c(N)ncnc21 [Compound 32] | 0.3 nM | 1 to 10 nM | 1000 to 5000 nM | –
2 | Cn1cc(-c2ccc3c(c2F)CCN3C(=O)Cc2ccc(F)cn2)c2c(N)ncnc21 [Compound 18] | 13.5 nM | ≥ 10 nM | > 5000 nM | –
3 | Cc1cccc(CC(=O)N2CCc3c2ccc(-c2cn(C)c4ncnc(N)c24)c3F)n1 [Compound 10, reference compound] | – | 0.1 to 1 nM | – | IC50 ([1]; 24 h, read-out: IC50 necroptosis): 0.42 nM; IC50 [1, 9]: 0.7 nM; IC50 [4]: 3.1 nM; IC50 [5]: 3.7 nM; number of kinases inhibited with more than 80% [6]: 17
4 | COc1ccc(CC(=O)N2CCc3c2ccc(-c2cn(C)c4ncnc(N)c24)c3F)nc1 [Compound 23] | 39 nM | ≥ 10 nM | ≥ 5000 nM | –
5 | Cn1cc(-c2ccc3c(c2F)CCN3C(=O)Cc2ccc(Cc3ccccc3)cn2)c2c(N)ncnc21 [Compound 28] | 62 nM | ≥ 10 nM | ≥ 5000 nM | –
6 | Cn1cc(-c2ccc3c(c2F)CCN3C(=O)Cc2ccc(C(F)(F)F)cc2)c2c(N)ncnc21 [Compound 34] | 1.1 nM | 1 to 10 nM | ≥ 5000 nM | –
7 | Cc1ccc(CC(=O)N2CCc3c2ccc(-c2cn(C)c4ncnc(N)c24)c3F)nc1 [Compound 21] | 37 nM | ≥ 10 nM | 1000 to 5000 nM | –
8 | Cn1cc(-c2ccc3c(c2F)CCN3C(=O)Cc2ccc(O)cn2)c2c(N)ncnc21 [Compound 26] | 2530 nM | ≥ 10 nM | ≥ 5000 nM | IC50 [1, 10]: > 2000 nM
9 | Cn1cc(-c2ccc3c(c2F)CCN3C(=O)Cc2ccc(Cl)cn2)c2c(N)ncnc21 [Compound 19] | 2.5 nM | 1 to 10 nM | > 5000 nM | –
10 | Cn1cc(-c2ccc3c(c2F)CCN3C(=O)Cc2ccc(Cl)cc2)c2c(N)ncnc21 [Compound 31] | 0.4 nM | 0.1 to 1 nM | 1000 to 5000 nM | –
11 | Cn1cc(-c2ccc3c(c2F)CCN3C(=O)Cc2ccc(C3CC3)cn2)c2c(N)ncnc21 [Compound 24] | 33.5 nM | ≥ 10 nM | > 5000 nM | –
12 | CN1C(=O)[C@@H](NC(=O)c2n[nH]c(Cc3ccccc3)n2)COc2ccccc21 [GSK’772, reference compound] | – | – | – | IC50 [1, 9]: > 100 nM; necroptosis inhibition (in words) [1]: no activity; IC50 [4]: 0.2 nM; IC50 [5]: > 100 nM
13 | Cn1cc(-c2ccc3c(c2F)CCN3C(=O)Cc2ccc(Br)cn2)c2c(N)ncnc21 [Compound 20] | 3.2 nM | 1 to 10 nM | > 5000 nM | –
14 | Cn1cc(-c2ccc3c(c2F)CCN3C(=O)Cc2ccc(F)cc2)c2c(N)ncnc21 [Compound 30] | 0.01 nM | 0.1 to 1 nM | 1000 to 5000 nM | fold higher potency than GSK’157 (necroptosis IC50) ([1]; MEFs, hTNF + zVAD.fmk): 40 fold
15 | Cc1ccc(CC(=O)N2CCc3c2ccc(-c2cn(C)c4ncnc(N)c24)c3F)cc1 [Compound 33] | > 10000 nM | ≥ 10 nM | 1000 to 5000 nM | necroptosis inhibition (in words) [1]: complete loss of necroptosis inhibition
16 | Cn1cc(-c2ccc3c(c2F)CCN3C(=O)Cc2ccc(-c3ccccc3)cn2)c2c(N)ncnc21 [Compound 29] | > 10000 nM | ≥ 10 nM | > 5000 nM | –
17 | Cn1cc(-c2ccc3c(c2F)CCN3C(=O)Cc2ccc(C(C)(C)C)cn2)c2c(N)ncnc21 [Compound 25] | 40 nM | ≥ 10 nM | > 5000 nM | –
18 | Cn1cc(-c2ccc3c(c2F)CCN3C(=O)Cc2ccncc2)c2c(N)ncnc21 [Compound 27] | 3020 nM | ≥ 10 nM | > 5000 nM | IC50 [1, 10]: > 2000 nM
19 | Cn1cc(-c2ccc3c(c2)CCN3C(=O)Cc2cccc(C(F)(F)F)c2)c2c(N)ncnc21 [GSK’414, 7-methyl-5-(1-{[3-(trifluoromethyl)phenyl]acetyl}-2,3-dihydro-1H-indol-5-yl)-7H-pyrrolo[2,3-d]pyrimidin-4-amine] | – | – | – | number of kinases inhibited with more than 85% [7]: 20
